The results in this text go back to ChEMBL document CHEMBL3286197, “Synthesis and structure-activity relationship of cyclopentenone oximes as novel inhibitors of the production of tumor necrosis factor-α” (Bioorg Med Chem Lett, 2014).

For assay [1], the system named is PBMC. Description: Inhibition of LPS-induced TNF-alpha production in rat PBMC.
The subject of assay [2] is PBMC. Description: Inhibition of LPS-induced TNF-alpha production in human PBMC. The assay is classed as functional, cell-based.

The structures appear in SMILES notation. pIC50: −log10 of the molar value.

Usually pIC50 stands for the negative decadic logarithm of the IC50, by convention in mol/L. A high value points to a low IC50.

In the assay on PBMC [1], `O/N=C1\CCC(C2CCCCC2)=C1c1ccc(F)c(F)c1` gave a negative-log IC50 (pIC50) of 6.47.
Take `O/N=C1\CCC(C2CCCC2)=C1c1ccc(F)cc1`: the pIC50 in the assay with PBMC [1] was 6.34.
As to `O/N=C1\CCC(C2CCCC2)=C1c1ccc(F)c(F)c1`, the pIC50 with PBMC [1] is 6.89; with PBMC [2] it was 6.59.
The molecule `O/N=C1\CCC(C2CCCC2)=C1c1ccc2c(c1)OCO2` gave a pIC50 in the assay on PBMC [1] of 6.46.
Same read-out and setting: to `O/N=C1\CCC(C2CCCC2)=C1c1cccc(O)c1` belongs 5.21; to `O/N=C1\CCC(C2CCCC2)=C1c1cccc(C(F)(F)F)c1`, 5.51; to `O/N=C1\CCC(C2CCCCC2)=C1c1ccc(F)cc1`, 5.91.
`O/N=C1\CCC(C2CCCCC2)=C1c1ccc(F)c(Cl)c1` showed a negative-log IC50 (pIC50) in the assay on PBMC [1] of 6.38.
`CCCCCC1=C(c2ccc(F)cc2)/C(=N/O)CC1`: the pIC50 in the assay with PBMC [1] was 5.42; in the assay with PBMC [2], 5.34.
In the assay with PBMC [1], `CCCCCC1=C(c2ccc(F)c(F)c2)/C(=N/O)CC1` gave a negative logarithm of the IC50 (pIC50) of 5.44.
Regarding `CCCCCC1=C(c2cccnc2)/C(=N/O)CC1`, in the assay with PBMC [1], the pIC50 is 4.85.
As for `CCCCC1=C(c2ccc(F)cc2)/C(=N/O)CC1`, the pIC50 in the assay on PBMC [1] was 5.10.
With `CCCCC1=C(c2ccc3c(c2)OCO3)/C(=N/O)CC1`, the pIC50 in the assay with PBMC [1] is 5.60; in the assay on PBMC [2], 5.53.
In the case of `CCCC1=C(c2ccc(F)cc2)/C(=N/O)CC1`, the negative-log IC50 (pIC50) in the assay on PBMC [1] was 5.58.
Regarding `CCCC1=C(c2ccc(F)c(F)c2)/C(=N/O)CC1`, the pIC50 with PBMC [1] was 6.14.
As for `CCC1=C(c2ccc(F)c(F)c2)/C(=N/O)CC1`, the pIC50 with PBMC [1] was 5.34.
In the assay on PBMC [1], `CC1=C(c2ccc(F)c(F)c2)/C(=N/O)CC1` showed a negative-log IC50 (pIC50) of 4.31.
With `COc1ccc(C2CNC(=O)C2)cc1OC1CCCC1` (configuration not stated) [ROLIPRAM], the negative-log IC50 (pIC50) in the assay with PBMC [1] and in the assay with PBMC [2] was 6.57 each time.
